Reference: patent publication EP1721614A1, “Epirubicine hydrochloride for treating hepatitis C virus” (Institut National de la Santé et de la Recherche Médicale …, priority 2005, dated 2006)
Structures can show the parent of a compound that is named as a salt.

What was measured:
[1] = in vitro; details: human, huh7 cells
[2] = test system: HCV subgenomic replicon stably transfected into Huh7 cell lines (clone BM4.5); assay: anti-HCV activity in HCV subgenomic replicon system (Northern blot of HCV RNA, normalised to actin); assay type: cell-based, hepatitis C virus (HCV)
Procedure: The potential antiviral (anti HCV) activity of epirubicin hydrochloride was tested in in vitro cell culture model using the HCV subgenomic replicon stably transfected into Huh7 cell lines (clone BM4.5) (Ju-Tao Gao et al., J Virol. 2001).
Huh7 cells containing the HCV replicon were grown in cell culture medium in presence of varying concentration of epirubicin. The media and drug were changed everyday for 5 days. After 5 days of treatment the cells were lysed and total RNA extracted. The isolated RNA was then assayed for presence of HCV replication by Northern Blot analysis, using a HCV probe targeting the NS5B region of HCV.
The cell lines were treated everyday with epirubicin from concentration of 20 nM to 2 nM for 5 days and at the end of treatment RNA from the treated cells were isolated. The total RNA was then probed with a HCV specific probe using Northern blot analysis to detect the HCV RNA. The resulting blot was then exposed to phosphorimager densitometry and the viral replication quantified.

[3] = cited from earlier work

## COc1cccc2c1C(=O)c1c(O)c3c(c(O)c1C2=O)C[C@@](O)(C(=O)CO)C[C@@H]3O[C@H]1C[C@H](N)[C@@H](O)[C@H](C)O1 [epirubicin hydrochloride, 7-O-(3'-amino-2',3',6'-trideoxy-α,β-L-arabinohexpyranosyl)-adriamycinone hydro-chloride]
[1]
  CC50: > 100 nM
[2]; CC50 in Huh7 cells versus IC50 in HCV replicon system
  selectivity index: 25
[2]; Hepatitis C virus, Huh-7, 120 h, Huh7 replicon cells, 5 days of treatment, Figure 2, read-out: 50% inhibitory concentration (IC50), anti-HCV activity measured in HCV replicon system
  IC50: 3 to 5 nM
[3]; antitumor therapy in man
  maximum cumulative dose: 900 - 1000 mg/m^2
[3]; man
  "safe" dose (total cumulative dose, Kaplan-Meier plot of cumulative probability of developing congestive heart failure): 100 - 150 mg/m^2
